From patent US7964598B2 (The J. David Gladstone Institutes, priority 1995, dated 2011)
“Also recorded” adds a separate entry of the source.

Experiments:
[1] = system: apoE4 enhancement of Aβ production; test: Aβ production assay, B103-APP cells incubated with apoE4; assay type: cell-based, rat
Protocol: (§1) Aβ production assay. Stable neuroblastoma B103 cell lines transfected with a wildtype hAPP cDNA construct (B 103-APP) were selected by growing them in Dulbecco's modified Eagle's medium (DMEM) containing 10% fetal calf serum (FBS) and 400 μg/ml G418. A cell line expressing APP at similar levels in mouse brains has been identified by RNase protection assay (RPA) and was used in the studies described below. To determine Aβ production, B103-APP cells were incubated with serum-free minimal essential medium (MEM) containing N2 supplements with or without apoE isoforms for 24 h at 37° C. After incubation, 50 μl of medium was collected and assayed for Aβ levels with an ELISA method. The cells were lysed, and cellular proteins were determined by the Lowry method. AP production was normalized to cellular protein.
(§2) Cell Culture. Rat neuroblastoma B103 cells stably expressing human wildtype APP (hAPP695wt) (Xu et al. ((1999) Proc. Natl. Acad. Sci. USA 96:7547-7552; Esposito, et al. (2004) J. Neurochem. 91:1260-1274) were generated in Dr. Lennart Mucke's laboratory at the Gladstone Institute of Neurological Disease and maintained in Dulbecco's modified Eagle's medium (DMEM) (GIBCO, Grand Island, N.Y.) containing 400 μg/ml G418, 10% fetal bovine serum, and 5% horse serum at 37° C. Twenty-four hours after plating into 48-well plates (1×10^5 cells per well), cells were washed twice with serum-free DMEM and cultured for another 24 h in DMEM containing 1% N-2 supplement (GIBCO) to induce differentiation. The cells were treated with either β-VLDL (25 μg/ml cholesterol), recombinant human apoE isoform-enriched β-VLDL (7.5 μg/ml apoE and 25 μg/ml cholesterol), or recombinant human apoE (7.5 μg/ml apoE) in fresh DMEM containing 1% N-2 supplement for an additional 24 h. In some experiments, RAP (25 nM or 1 μM) was added to the cells 1 h before apoE treatment.
(§3) Aβ Assay. Aβ secreted into the medium was detected with a sandwich enzyme-linked immunosorbent assay (ELISA), using mAb 266 as a capturing antibody and 3D6 as a detecting antibody, as described. Johnson-Wood et al. ((1997) Proc. Natl. Acad. Sci. USA 94:1550-1555). Aβ was quantified from a standard curve (Aβ42; Bachem, Torrance, Calif.) and normalized by total cellular protein.

apoE3 = test: Aβ production assay, B103-APP cells incubated with apoE3; assay type: cell-based, rat; settings: FIG. 22
Protocol: as §1, §2, §3

Neuro-2a cells = test: Aβ-induced apoptosis (DNA fragmentation assay); assay type: cell-based, mouse
B103 cells = test: Toxicity to B103 cells; assay type: cell-based, rat; settings: at the micromole level
Water solubility = assay type: physicochemical

Q: For `O=S(=O)([O-])c1ccc2c(c1)c(Nc1ccc(S(=O)(=O)O)cc1)cc1c2nc2ccccc2[n+]1-c1ccccc1` [GIND-25, azocarmine-G], which “apoE4 enhancement of Aβ production” value ([1]; FIG. 22) is on record?
A: The value was “abolished completely”.

Q: And the “enhancement of Aβ production by apoE4” value ([1]; compound 5 μM preincubated with apoE 7.5 μg/ml 30 min, then 24 h with cells, FIG. 27D)?
A: The value was “abolish; also recorded: decreased Aβ production induced by apoE4 to levels similar to those induced by apoE3”.

Q: What about the “effect on apoE3 (Aβ production)” value (apoE3) of the same compound?
A: The value was “no effect”.

Q: What about the “apoptosis, cells with medium alone or medium containing apoE3 plus Aβ1-42” value (Neuro-2a cells) of the same compound?
A: The value was “no significant effect”.

Q: What about the “apoE4 potentiation of Aβ-induced apoptosis” value (Neuro-2a cells; apoE4 conditioned medium, Aβ1-42) of the same compound?
A: The value was “block; also recorded: abolish”.

Q: And the “toxicity to B103 cells” value (B103 cells)?
A: The value was “no significant toxicity”.

Q: And the water solubility (Water solubility)?
A: The water solubility was “water-soluble”.
